# Peptide text beside a SMILES is read from it.
# Assays:
# [1] = set-up: species or system human; settings: in vivo
# Experimental: In the SAD phase, healthy volunteers were screened within 28 days prior to dosing. Subjects were admitted to the clinical facility on day −1 for up to 3 days. A single dose of SPR741 (or placebo) was administered on day 1. Following completion of all safety assessments and sampling for PK analyses, subjects were discharged on day 2. A follow-up visit occurred 5 to 7 days after day 1 dosing. In the MAD phase, all subjects were admitted to the clinical facility on day −1. Dosing commenced on the morning of day 1. Three doses were administered daily at approximately 8 (±0.5)-h intervals for a total of 14 consecutive days. The last dose was administered on the morning of day 14. Blood and urine samples were collected for assessment of PK parameters. Subjects were discharged on day 16 following completion of all PK sample collection and safety assessments, and a follow-up visit occurred 5 to 7 days after the last dose.
# [2] = clinical; set-up: species or system human; settings: in vivo, iv
# Source text: The SAD/MAD study was a phase 1, double-blind, placebo-controlled, multicohort trial. Part 1 used a SAD design according to which subjects received a single i.v. dose of SPR741. Part 2 used a MAD design in which subjects received multiple daily i.v. doses of SPR741 over a period of 14 days. The objective was to assess the safety/tolerability and PK of single and multiple ascending doses of SPR741. In the SAD phase, healthy volunteers were screened within 28 days prior to dosing. Subjects were admitted to the clinical facility on day −1 for up to 3 days. A single dose of SPR741 (or placebo) was administered on day 1. Following completion of all safety assessments and sampling for PK analyses, subjects were discharged on day 2. A follow-up visit occurred 5 to 7 days after day 1 dosing. In the MAD phase, all subjects were admitted to the clinical facility on day −1. Dosing commenced on the morning of day 1. Three doses were administered daily at approximately 8 (±0.5)-h intervals for a total of 14 consecutive days. The last dose was administered on the morning of day 14. Blood and urine samples were collected for assessment of PK parameters. Subjects were discharged on day 16 following completion of all PK sample collection and safety assessments, and a follow-up visit occurred 5 to 7 days after the last dose. In the SAD phase, subjects were randomized to one of eight cohorts that received doses of 5, 15, 50, 100, 200, 400, 600 or 800 mg of SPR741. Within each cohort, two subjects received placebo, and six received SPR741. In cohort 1, two subjects (sentinels) were dosed with SPR741 or placebo 48 h prior to dosing of the remaining subjects. The remaining six subjects were dosed only after no safety concerns were identified in the sentinel subjects. After each dose cohort had completed administration of study drug and evaluation, a Safety Monitoring Group reviewed blinded cumulative safety data (including day 5 to day 7 follow-up data) to confirm the safety and tolerability of SPR741.
# [3] = clinical; settings: human, in vivo, iv
# Source text: The SAD/MAD study was a phase 1, double-blind, placebo-controlled, multicohort trial. Part 1 used a SAD design according to which subjects received a single i.v. dose of SPR741. Part 2 used a MAD design in which subjects received multiple daily i.v. doses of SPR741 over a period of 14 days. The objective was to assess the safety/tolerability and PK of single and multiple ascending doses of SPR741. In the SAD phase, healthy volunteers were screened within 28 days prior to dosing. Subjects were admitted to the clinical facility on day −1 for up to 3 days. A single dose of SPR741 (or placebo) was administered on day 1. Following completion of all safety assessments and sampling for PK analyses, subjects were discharged on day 2. A follow-up visit occurred 5 to 7 days after day 1 dosing. In the MAD phase, all subjects were admitted to the clinical facility on day −1. Dosing commenced on the morning of day 1. Three doses were administered daily at approximately 8 (±0.5)-h intervals for a total of 14 consecutive days. The last dose was administered on the morning of day 14. Blood and urine samples were collected for assessment of PK parameters. Subjects were discharged on day 16 following completion of all PK sample collection and safety assessments, and a follow-up visit occurred 5 to 7 days after the last dose. The MAD phase of the study began after safety and tolerability were confirmed in cohort 5, and the appropriate dose level was established. Two subjects received placebo, and six subjects received SPR741 doses of 50, 150, 400 or 600 mg q8h for 14 days. In the first cohort of the MAD phase (50 mg q8h), two subjects (sentinels) began dosing with SPR741 or placebo 72 h prior to dosing of the remaining subjects in this cohort. The remaining six subjects were dosed only after no safety concerns were identified by the Safety Monitoring Group at 72 h. […]
compound,measurement,setting,value
"CC(=O)N[C@H](C(=O)N[C@H](CO)C(=O)N[C@H]1CCNC(=O)[C@H]([C@@H](C)O)NC(=O)[C@H](CCN)NC(=O)[C@H](CCN)NC(=O)[C@H](CC(C)C)NC(=O)[C@@H](Cc2ccccc2)NC(=O)[C@H](CCN)NC1=O)[C@@H](C)O [SPR741] (HELM PEPTIDE1{[ac].T.[dS].[Dab].[Dab].[dF].L.[Dab].[Dab].T}$PEPTIDE1,PEPTIDE1,4:R3-10:R2$$$V2.0)",fraction of the dose excreted from 0 to 24 h postdose on day 14,[1],139.1%
same,Tmax,[2]; human,1 h
same,AUC(0-inf),"[2]; human, 5 mg",1010 ng·h/mL
same,Cmax,"[2]; human, 5 mg",370 ng/mL
same,Vd,"[2]; human, 5 mg",14.4 L
same,clearance,"[2]; human, 5 mg",83.3 mL/min
same,half-life,"[2]; human, 5 mg",2.02 h
same,AUC(0-inf),"[2]; human, 15 mg",3090 ng·h/mL
same,Cmax,"[2]; human, 15 mg",924 ng/mL
same,Vd,"[2]; human, 15 mg",19.7 L
same,clearance,"[2]; human, 15 mg",84 mL/min
same,half-life,"[2]; human, 15 mg",2.81 h
same,AUC(0-inf),"[2]; human, 50 mg",9740 ng·h/mL
same,Cmax,"[2]; human, 50 mg",3250 ng/mL
same,Vd,"[2]; human, 50 mg",18.4 L
same,clearance,"[2]; human, 50 mg",86.3 mL/min
same,half-life,"[2]; human, 50 mg",2.48 h
same,AUC(0-inf),"[2]; human, 100 mg",18200 ng·h/mL
same,Cmax,"[2]; human, 100 mg",6010 ng/mL
same,Vd,"[2]; human, 100 mg",20.6 L
same,clearance,"[2]; human, 100 mg",92.5 mL/min
same,half-life,"[2]; human, 100 mg",2.57 h
same,AUC(0-inf),"[2]; human, 200 mg",37300 ng·h/mL
same,Cmax,"[2]; human, 200 mg",13400 ng/mL
same,Vd,"[2]; human, 200 mg",20.3 L
same,clearance,"[2]; human, 200 mg",91 mL/min
same,half-life,"[2]; human, 200 mg",2.62 h
same,AUC(0-inf),"[2]; human, 400 mg",82200 ng·h/mL
same,Cmax,"[2]; human, 400 mg",26000 ng/mL
same,Vd,"[2]; human, 400 mg",24.5 L
same,clearance,"[2]; human, 400 mg",81.5 mL/min
same,half-life,"[2]; human, 400 mg",3.47 h
same,AUC(0-inf),"[2]; human, 600 mg",133000 ng·h/mL
same,Cmax,"[2]; human, 600 mg",38000 ng/mL
same,Vd,"[2]; human, 600 mg",24.6 L
same,clearance,"[2]; human, 600 mg",77 mL/min
same,half-life,"[2]; human, 600 mg",3.76 h
same,AUC(0-inf),"[2]; human, 800 mg",190000 ng·h/mL
same,Cmax,"[2]; human, 800 mg",52600 ng/mL
same,Vd,"[2]; human, 800 mg",21.2 L
same,clearance,"[2]; human, 800 mg",70.8 mL/min
same,half-life,"[2]; human, 800 mg",3.46 h
same,time of peak mean plasma concentration,[2],approximately 1 h
same,Tmax,[3],1 h
same,clearance,[3]; CL,89 mL/min
same,half-life,"[3]; mean (apparent terminal elimination) half-life, day 1",2.2 h

# — publication PMC6709486, “Safety, Tolerability, Pharmacokinetics, and Drug Interaction Potential of SPR741, an Intravenous Potentiator, after Single and Multiple Ascending Doses and When Combined with β-Lactam Antibiotics in Healthy Subjects” (Antimicrobial Agents and Chemotherapy, 2019)
